Reference: PubChem BioAssay (NCI)
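Briefly, cells in 96-well plates were exposed to five compound concentrations for 48 h, and endpoints were estimated by linear interpolation. At the GI50, growth is halved. TGI: concentration producing complete growth inhibition.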

How the values were obtained:
Experiment in all cases: NCI-60 cell line screen, 48 h
[1] = test system: HCC-2998 colon
[2] = test system: K-562 leukemia
[3] = test system: M14 melanoma
[4] = test system: NCI-H460 lung
[5] = test system: OVCAR-8 ovarian
[6] = test system: RPMI-8226 leukemia
[7] = test system: RXF 393 renal
[8] = test system: SNB-75 CNS
[9] = test system: TK-10 renal
[10] = test system: HS 578T breast

SMILES	TGI [1] [µM]	TGI [2] [µM]	TGI [3] [µM]	TGI [4] [µM]	TGI [5] [µM]	TGI [6] [µM]	TGI [7] [µM]	TGI [8] [µM]	TGI [9] [µM]	GI50 [1] [µM]	GI50 [10] [µM]	TGI [10] [µM]	GI50 [2] [µM]	GI50 [3] [µM]	GI50 [4] [µM]	GI50 [5] [µM]	GI50 [6] [µM]	GI50 [8] [µM]	GI50 [9] [µM]	GI50 [7] [µM]
C[N+](C)(C)CC(=O)N/N=C(\Cc1nc2ccc([N+](=O)[O-])cc2[nH]c1=O)C(=O)Nc1nc2ccc([N+](=O)[O-])cc2s1	> 100	> 100	> 100	> 100	> 100	> 100	> 100	> 100	> 100	–	–	–	–	–	–	–	–	–	–	–
COC(=O)C1=CC2C(=O)OC1C1C(=O)NC(=O)C21 (centres undefined)	> 100	> 100	> 100	> 100	> 100	> 100	–	> 100	> 100	–	–	–	–	–	–	–	–	–	–	–
CCC12C=CCN(CCc3c([nH]c4ccccc34)/C=C\1)C2 (centres undefined)	> 100	> 100	> 100	> 100	–	> 100	–	> 100	–	–	–	–	–	–	–	–	–	–	–	–
O=C(NC1CC1)c1c(O)[nH]c(=S)[nH]c1=O	–	> 100	> 100	> 100	> 100	> 100	–	> 100	> 100	–	–	–	–	–	–	–	–	–	–	–
COc1ccc(OC)c(Nc2nc3nonc3nc2Nc2cccc(Br)c2)c1	> 100	17.5	44.7	> 100	> 100	3.05	–	8.12	16.5	0.818	0.807	8.14	0.556	1.5	0.504	1.02	0.309	1.25	0.988	–
CC1(C)c2ccccc2N2C(c3ccccc3)=NOC21C (centres undefined)	–	> 100	> 100	> 100	> 100	> 100	> 100	> 100	> 100	–	–	–	–	–	–	–	–	–	–	–
CCOC(=O)c1cc(=O)n(C)c(=O)n1C	> 100	> 100	> 100	> 100	> 100	–	> 100	> 100	> 100	–	–	–	–	–	–	–	–	–	–	–
O=c1nc2sc3ccccc3c(=O)n2[nH]1	> 100	> 100	> 100	> 100	> 100	> 100	> 100	> 100	> 100	–	–	–	–	–	–	–	–	–	–	–
COC(=O)C1C(C(=O)O)C2(c3ccccc3)C(=O)C1(c1ccccc1)C(c1ccccc1)=C2c1ccccc1 (centres undefined)	29.6	> 100	35.7	29.1	35.9	45.7	36.3	–	99	15.7	23.4	58	21.8	19.6	13.6	18.8	15.7	–	39.2	16.8
O=C(O)c1ccc2c(c1)C(=O)N(c1ccc(S(=O)(=O)c3ccc(N4C(=O)c5ccc(C(=O)O)cc5C4=O)cc3)cc1)C2=O	–	> 100	> 100	> 100	> 100	> 100	> 100	> 100	> 100	–	–	–	–	–	–	–	–	–	–	–
COc1ccc2c(c1)C(=Nc1ccc(F)c(Cl)c1)c1c-2c(Nc2ccc(F)c(Cl)c2)nc2ccccc12	> 100	37	> 100	> 100	> 58.5	> 100	37.1	–	> 80	> 100	35.3	98.5	4.19	47.1	> 100	22.6	> 60.4	–	34.5	0.579
O=C(Oc1ccccc1)N(c1ccccc1)c1ccccc1	–	> 100	65.2	89.2	> 100	–	92.6	52.5	> 100	–	–	–	25.8	24.7	26.4	31.8	–	19.6	37.1	25.8
O=C1C=C(NCCO)c2nccc3c2c1nc1ccccc13	–	> 100	58.7	40.9	> 100	> 100	89.4	> 100	60.8	–	25.5	> 100	31.5	17.3	6.04	40	24.7	49.7	18.7	28.2
COC(=O)c1c(O)ccc(O)c1C(C(C)=O)C(C)=O	> 100	> 100	> 100	> 100	> 100	> 100	> 100	> 100	> 100	–	–	–	–	–	–	–	–	–	–	–
Cc1ccccc1NC(=O)Cc1nc2ccccc2s1	64.9	38.7	25.2	38.2	32.4	–	33	> 100	41	–	–	–	–	–	–	–	–	–	–	–
CC[C@H](C)[C@@H]([C@@H](CC(=O)N1CCC[C@H]1[C@H](OC)[C@@H](C)C(=O)NCCc1ccccc1)OC)N(C)C(=O)C(NC(=O)[C@H](C(C)C)N(C)C)C(C)C (some centres undefined)	0.00228	> 10	0.000855	–	> 10	–	> 10	–	> 10	–	–	–	–	–	–	–	–	–	–	–
Cc1ccc(S(=O)(=O)OCOS(=O)(=O)c2ccc(C)cc2)cc1	> 100	> 100	> 100	> 100	> 100	> 100	> 100	–	> 100	–	–	–	–	–	–	–	–	–	–	–
O=S1(=O)c2ccccc2N(c2ccccc2)c2nnnn21	36.4	> 100	54.5	> 100	> 100	–	49.5	–	> 100	–	–	> 100	–	–	–	–	–	–	–	–
O=C(/C=C/c1ccc(Cl)c(Cl)c1)c1ccccc1Cl	25.6	19.4	12.7	27.2	11.8	> 29.1	31.6	27.5	47.9	–	–	–	–	–	–	–	–	–	–	–
Cc1ccc2c(c1)-c1c3c(nn1C)-c1ccccc1SC3O2 (centres undefined)	> 100	> 100	–	> 100	> 100	> 100	> 100	> 100	> 100	–	–	–	–	–	–	–	–	–	–	–
CC(=O)OC1CCC2OOC1O2 (centres undefined)	> 100	> 100	> 100	> 100	> 100	> 100	> 100	> 100	> 100	–	–	–	–	–	–	–	–	–	–	–
